Measurements as given in US20250049970A1, “DLL3 TARGETING PEPTIDES AND CONSTRUCTS THEREOF” (MARIANA ONCOLOGY INC., priority 2023, published 2025).
Where a SMILES comes first, the peptide text is derived from it. Bridges are numbered along the chain shown (N, C = ends). [ ]: non-standard residue; d: D form. The star is where a group is joined. DOTA = O=C(O)CN1CCN(CC(=O)O)CCN(CC(=O)*)CCN(CC(=O)O)CC1; 2Nal = N[C@@H](Cc1ccc2ccccc2c1)C(=O)O; Gly(4-THP) = N[C@H](C(=O)O)C1CCOCC1; aIle = CC[C@@H](C)[C@H](N)C(=O)O; Cha = N[C@@H](CC1CCCCC1)C(=O)O; Chg = N[C@H](C(=O)O)C1CCCCC1; NMeNle = CCCC[C@H](NC)C(=O)O

Tests used:
DLL3 = biological target: T1, DLL3 (Homo sapiens, UniProt Q9NYJ7); test: SPR KD, biotinylated human DLL3 on streptavidin chip (Table 8); parameters: biotin (biotinylated); conditions: biotinylated human DLL3 on streptavidin sensor chip, 25° C., 1:1 binding model; read-out: SPR KD
T1 sequence (Q9NYJ7 27-618): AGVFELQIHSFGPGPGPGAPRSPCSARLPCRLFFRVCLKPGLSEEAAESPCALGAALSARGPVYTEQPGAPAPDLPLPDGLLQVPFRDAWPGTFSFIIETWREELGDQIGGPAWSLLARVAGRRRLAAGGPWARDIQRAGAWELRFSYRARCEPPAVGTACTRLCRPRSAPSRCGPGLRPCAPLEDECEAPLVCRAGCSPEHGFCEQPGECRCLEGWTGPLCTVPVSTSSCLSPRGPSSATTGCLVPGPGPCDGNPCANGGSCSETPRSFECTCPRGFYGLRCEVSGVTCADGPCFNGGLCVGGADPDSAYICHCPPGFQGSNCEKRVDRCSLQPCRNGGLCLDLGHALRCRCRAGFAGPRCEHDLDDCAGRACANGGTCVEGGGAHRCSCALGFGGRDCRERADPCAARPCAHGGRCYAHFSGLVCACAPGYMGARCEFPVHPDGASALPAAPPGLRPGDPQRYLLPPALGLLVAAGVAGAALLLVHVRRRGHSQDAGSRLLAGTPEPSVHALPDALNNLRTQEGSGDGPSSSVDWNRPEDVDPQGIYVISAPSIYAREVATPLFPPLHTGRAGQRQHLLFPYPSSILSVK
Description: Biotinylated target ligand human DLL3 was immobilized on a streptavidin sensor chip. A reference surface was set up for nonspecific binding and refractive index changes. […] Sensorgram curves were fitted with 1:1 binding model, and affinity and kinetic parameters were obtained using Biacore Insight evaluation 4.0. software.

CT26.DLL3 cells [1] = test: Internalization of [177Lu]Lu-labeled peptide, CT26.DLL3 cells; assay type: cell-based; conditions: 1 h, 37° C.
Experimental: (§1) [^177Lu]LuCl3 was received from venders in HCl solution. For every mCi of [^177Lu]LuCl3 added to the reaction vial (1.5 mL Eppendorf vial), ammonium acetate buffer (0.2 M, pH 4.9, 100 μL, containing 1% w/v ascorbic acid and 6% v/v ethanol) and peptide conjugate (1 nmol; also referred to herein as “chelator-peptides”) was added. The pH of the solution was determined to be approximately 5 by using pH strips. The reaction vial was incubated at 80° C., 700 RPM for 17-20 minutes. A sample from the reaction was analyzed by RP-HPLC using an Agilent Infinity II 1260 HPLC to determine reaction completion and radiochemical purity of [^177Lu]Lu-chelator-peptides. HPLC conditions: Waters XBridge BEH C18 Column, 130A, 3.5 μm, 4.6 mm×250 mm; mobile phase: Solvent A=water (with 0.1% formic acid), solvent B=acetonitrile (with 0.1% formic acid). Gradients: 25-45% B in 10 minutes, 45-65% B in 12 minutes, 65-90% in 6 minutes at a flow rate of 0.5 mL/minutes Required amounts of the product was formulated in 1% PBSA for cell studies.
(§2) The study was conducted using SHP-77, CT26.WT, CT26.DLL3, and HEK293.DLL3 cells (Table 9)
(§3) Adherent cell studies: The cells were cultured in appropriate culture media (20 mL) in tissue culture treated T150 flasks at 37° C. and 5% C02. Adherent cells were detached (60-70% confluent) using 5 mL Versene at 37° C. for 3 minutes. After confirming the viability using countess and count of detached cells using Trypan blue, the cells were centrifuged at 4° C. for 5 minutes (1,000 rpm). The cell pellet obtained was washed once with PBS and resuspended in 1% PBSA to obtain the desired cell concentration (5-25 million cells/mL).
(§4) Cell numbers used for the assay were in the range of 5 million cells/condition-25 million cells/condition.
(§5) Internalization: The resuspended cells in 300 μL of 1% PBSA and counted in the gamma counter as “bound fraction” were collected in 1.5 mL Eppendorf tube and pelleted. The pelleted cells were incubated with 300 μL of 50 mM Glycine pH=2.5 for 3 minutes and then pelleted discarding the supernatant. This process was repeated one more time. The pelleted cells were washed with 300 μL of cold 1% PBSA and then resuspended in 300 μl 0.3M NaOH. This was counted in the gamma counter as “internalized fraction”.
(§6) In these Tables, “A” represents % s ≤25; “B” represents 25 <% ≤50; “C” represents % >50.

[2] = system: nude mice bearing SHP-77 tumors; test: Ex vivo biodistribution of radiolabeled peptides (% IA/g) in nude mice bearing SHP-77 tumors; conditions: [177Lu]Lu labelling, 24 hours post-injection, intravenous
Outline: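 [177Lu]Lu-peptides were given as an IV tail-vein bolus once tumors reached 200-400 mm^3. Injected activity was set per mouse from syringe dose-calibrator readings. At set time points, tissues were weighed and gamma-counted, and counts were decay-corrected to injection and expressed as % IA/g.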

SHP-77 cells [3] = test: Internalization of [177Lu]Lu-labeled peptide, SHP-77 cells; assay type: cell-based; conditions: 1 h, 37° C.
Experimental: as §1, §2, §3
(§7) Suspension cell studies: The cells were cultured in appropriate culture media (20 mL) in tissue culture treated T150 flasks at 37° C. and 5% CO2. After confirming the viability and count of detached cells using Trypan blue, the cells were centrifuged at 4° C. for 5 minutes (1,000 rpm). The cell pellet obtained was washed once with PBS and resuspended in 1% PBSA to obtain the desired cell concentration (5-25 million cells/mL).
as §4, §5, §6

CT26.DLL3 cells [4] = test: Cell binding (total uptake) of [177Lu]Lu-labeled peptide, CT26.DLL3 cells; assay type: cell-based; conditions: 1 h, 37° C.
Experimental: as §1, §2, §3, §4
(§8) Total uptake: Cells were incubated with 300 μL (0.8 μCi) of the incubation buffer (containing radiolabeled peptide [^177Lu]Lu-test peptide) for 1 hour at 37° C. (Table 10). Post incubation, the cells were pelleted and washed 2 times using cold PBS+1% BSA. The supernatant and washes were combined and counted together as “unbound fraction” in a gamma counter. The cells were then resuspended in 300 μL of 1% PBS+1% BSA and counted in the gamma counter as “bound fraction”.
as §6

SHP-77 cells [5] = test: Cell binding (total uptake) of [177Lu]Lu-labeled peptide, SHP-77 cells; assay type: cell-based; conditions: 1 h, 37° C.
Experimental: as §1, §2, §3, §7, §4, §8, §6

With `CC(=O)N[C@@H](Cc1c[nH]c2ccccc12)C(=O)N[C@H](C(=O)N[C@H](C(=O)N[C@H]1CSSC[C@@H](C(=O)N[C@@H](Cc2c[nH]c3ccccc23)C(=O)N2CCC[C@H]2C(N)=O)NC(=O)[C@H](CC(=O)O)NC(=O)[C@H](CCCCNC(=O)CN2CCN(CC(=O)O)CCN(CC(=O)O)CCN(CC(=O)O)CC2)NC(=O)[C@H](Cc2ccc3ccccc3c2)NC(=O)[C@H](CC(N)=O)NC(=O)[C@H](CC(N)=O)NC1=O)C1CCOCC1)[C@@H](C)O` [compound 317, Ac-W-T-(THPG)-C(3)-N-N-(2Nal)-Lys(DOTA)-D-C(3)-W-P-CONH2] (Ac-WT[Gly(4-THP)]CNN[2Nal]K(DOTA)DCWP-NH2; disulfide 4-10) the Kd (DLL3) was under 1 nM, the “% Internalization (out of bound fraction)” value (CT26.DLL3 cells [1]) was “C (% >50)” and the “kidney uptake (% IA/g)” value [2] was “D (“D” represents % IA/g > 10 in kidney)”. For the same molecule, the “tumor uptake (% IA/g)” value [2] was “A (“A” represents 0 < % IA/g ≤ 5 in tumor)”, the “% Internalization (out of bound fraction)” value (SHP-77 cells [3]) was “B (25 <% ≤50)” and the “% Binding” value (CT26.DLL3 cells [4]) was “A (% s ≤25)”. The “% Binding” value (SHP-77 cells [5]) was “A (% s ≤25)”.

For `CC(=O)N[C@@H](Cc1c[nH]c2ccccc12)C(=O)N[C@H](C(=O)N[C@H](C(=O)N[C@H]1CSSC[C@@H](C(=O)N[C@@H](Cc2c[nH]c3ccccc23)C(=O)N2CCC[C@H]2C(N)=O)NC(=O)[C@H](CC(=O)O)NC(=O)[C@H](CCCCNC(=O)CN2CCN(CC(=O)O)CCN(CC(=O)O)CCN(CC(=O)O)CC2)NC(=O)[C@H](Cc2ccc3ccccc3c2)NC(=O)[C@H](CC(N)=O)NC(=O)[C@H](CC(N)=O)NC1=O)C1CCCCC1)[C@@H](C)O` [compound 318, Ac-W-T-(Chg)-C(3)-N-N-(2Nal)-Lys(DOTA)-D-C(3)-W-P-CONH2] (Ac-WT[Chg]CNN[2Nal]K(DOTA)DCWP-NH2; disulfide 4-10), the Kd (DLL3) was under 1 nM, the “% Internalization (out of bound fraction)” value (CT26.DLL3 cells [1]) was “C (% >50)” and the “kidney uptake (% IA/g)” value [2] was “D (“D” represents % IA/g > 10 in kidney)”. For the same molecule, the “tumor uptake (% IA/g)” value [2] was “A (“A” represents 0 < % IA/g ≤ 5 in tumor)”, the “% Internalization (out of bound fraction)” value (SHP-77 cells [3]) was “C (% >50)” and the “% Binding” value (CT26.DLL3 cells [4]) was “A (% s ≤25)”. The “% Binding” value (SHP-77 cells [5]) was “B (25 <% ≤50)”.

`CCCC[C@@H](C(=O)N[C@H]1CSSC[C@@H](C(=O)N[C@@H](Cc2c[nH]c3ccccc23)C(=O)N2CCC[C@H]2C(N)=O)NC(=O)[C@H](CC(=O)O)NC(=O)[C@H](CCCCNC(=O)CN2CCN(CC(=O)O)CCN(CC(=O)O)CCN(CC(=O)O)CC2)NC(=O)[C@H](Cc2ccc3ccccc3c2)NC(=O)[C@H](CC(N)=O)NC(=O)[C@H](CC(N)=O)NC1=O)N(C)C(=O)[C@@H](NC(=O)[C@H](Cc1c[nH]c2ccccc12)NC(C)=O)[C@@H](C)O` [compound 320, Ac-W-T-(NMe-Nle)-C(3)-N-N-(2Nal)-Lys(DOTA)-D-C(3)-W-P-CONH2] (Ac-WT[NMeNle]CNN[2Nal]K(DOTA)DCWP-NH2; disulfide 4-10) was tested, and the Kd (DLL3) was under 1 nM, the “% Internalization (out of bound fraction)” value (CT26.DLL3 cells [1]) was “B (25 <% ≤50)” and the “kidney uptake (% IA/g)” value [2] was “D (“D” represents % IA/g > 10 in kidney)”. For the same molecule, the “tumor uptake (% IA/g)” value [2] was “A (“A” represents 0 < % IA/g ≤ 5 in tumor)”, the “% Internalization (out of bound fraction)” value (SHP-77 cells [3]) was “B (25 <% ≤50)” and the “% Binding” value (CT26.DLL3 cells [4]) was “A (% s ≤25)”. The “% Binding” value (SHP-77 cells [5]) was “A (% s ≤25)”.

In the case of `CC[C@@H](C)[C@H](NC(=O)[C@@H](NC(=O)[C@H](Cc1c[nH]c2ccccc12)NC(C)=O)[C@@H](C)O)C(=O)N[C@H]1CSSC[C@@H](C(=O)N[C@@H](Cc2c[nH]c3ccccc23)C(=O)N2CCC[C@H]2C(N)=O)NC(=O)[C@H](CC(=O)O)NC(=O)[C@H](CCCCNC(=O)CN2CCN(CC(=O)O)CCN(CC(=O)O)CCN(CC(=O)O)CC2)NC(=O)[C@H](Cc2ccc3ccccc3c2)NC(=O)[C@H](CC(N)=O)NC(=O)[C@H](CC(N)=O)NC1=O` [compound 322, Ac-W-T-(Allo-Ile)-C(3)-N-N-(2Nal)-Lys(DOTA)-D-C(3)-W-P-CONH2] (Ac-WT[aIle]CNN[2Nal]K(DOTA)DCWP-NH2; disulfide 4-10), the Kd (DLL3) is reported as under 1 nM, the “% Internalization (out of bound fraction)” value (CT26.DLL3 cells [1]) is reported as “C (% >50)” and the “kidney uptake (% IA/g)” value [2] is reported as “D (“D” represents % IA/g > 10 in kidney)”. The “tumor uptake (% IA/g)” value [2] was “A (“A” represents 0 < % IA/g ≤ 5 in tumor)”, the “% Internalization (out of bound fraction)” value (SHP-77 cells [3]) was “B (25 <% ≤50)” and the “% Binding” value (CT26.DLL3 cells [4]) was “A (% s ≤25)”. For the same molecule, the “% Binding” value (SHP-77 cells [5]) was “A (% s ≤25)”.

With `CC(=O)N[C@@H](Cc1c[nH]c2ccccc12)C(=O)N[C@H](C(=O)N[C@@H](CC1CCCCC1)C(=O)N[C@H]1CSSC[C@@H](C(=O)N[C@@H](Cc2c[nH]c3ccccc23)C(=O)N2CCC[C@H]2C(N)=O)NC(=O)[C@H](CC(=O)O)NC(=O)[C@H](CCCCNC(=O)CN2CCN(CC(=O)O)CCN(CC(=O)O)CCN(CC(=O)O)CC2)NC(=O)[C@H](Cc2ccc3ccccc3c2)NC(=O)[C@H](CC(N)=O)NC(=O)[C@H](CC(N)=O)NC1=O)[C@@H](C)O` [compound 323, Ac-W-T-(CHA)-C(3)-N-N-(2Nal)-Lys(DOTA)-D-C(3)-W-P-CONH2] (Ac-WT[Cha]CNN[2Nal]K(DOTA)DCWP-NH2; disulfide 4-10) the Kd (DLL3) was under 1 nM, the “% Internalization (out of bound fraction)” value (CT26.DLL3 cells [1]) was “C (% >50)” and the “kidney uptake (% IA/g)” value [2] was “D (“D” represents % IA/g > 10 in kidney)”. For the same molecule, the “tumor uptake (% IA/g)” value [2] was “A (“A” represents 0 < % IA/g ≤ 5 in tumor)”, the “% Internalization (out of bound fraction)” value (SHP-77 cells [3]) was “B (25 <% ≤50)” and the “% Binding” value (CT26.DLL3 cells [4]) was “A (% s ≤25)”. The “% Binding” value (SHP-77 cells [5]) was “A (% s ≤25)”.
